Measurements as given in publication PMC11374673, “Discovery of isoquinoline sulfonamides as allosteric gyrase inhibitors with activity against fluoroquinolone-resistant bacteria” (Nature Chemistry, 2024).
Values after ≈ are worked out from the molar mass of the structure shown. Values joined by “and” are separate entries in the source; they are usually repeats but may differ in a detail not shown here. Identical values can stand only once.

Key:
K. pneumoniae ATCC 29665 = assay: MIC by broth microdilution; format: cell-based, Klebsiella pneumoniae; conditions: Klebsiella pneumoniae, ATCC29665, broth microdilution; read-out: MIC K. pneumoniae ATCC 29665
Method in brief: (§1)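 Exponential-phase cultures (OD600 0.5, 37 °C aerobic), diluted 100-fold in CAMHB, were added to twofold compound dilution series. Keio strains grown with 50 µg ml^−1 kanamycin. Plates incubated overnight at 37 °C, shaking at 600 r.p.m.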

HEK293T = assay: Cytotoxicity assay (MTT); format: cell-based, human; conditions: for MTT data (raw reading) / MTT data (raw readout): HEK293T; for IC50: Homo sapiens, HEK-293T, 24 h, MTT
Procedure: (§2) HepG2 (ATCC HB-8065) and HEK293T (ATCC CRL-3216) cell lines were cultured at 37 °C and 7% CO2 in Dulbecco’s modified Eagle medium (Sigma-Aldrich, D6546) with GlutaMax, penicillin (100 µg ml^−1), streptomycin (100 µg ml^−1) and 10% fetal calf serum. Cells were passaged twice a week by first detaching using 0.05% trypsin in phosphate-buffered saline (PBS) and then diluting to appropriate confluence. Compound cytotoxicity was evaluated using the standard (3-(4,5-dimethylthiazol-2-yl)-2,5-diphenyltetrazolium bromide (MTT) assay protocol (MTT assay protocol for cell viability and proliferation, Merck) with slight changes. HepG2 and HEK293T cells were seeded at a density of 1.5 × 10^4 cells per well in a clear 96-well tissue culture treated plate in a final volume of 100 µl in Dulbecco’s modified Eagle medium, supplemented with fetal bovine serum (1%), GlutaMax and penicillin/streptomycin. Cells were incubated for 24 h at 37 °C, 7% CO2 to allow cells to attach to the plates. […] Incubation was done for 24 h at 37 °C, 7% CO2. After the incubation, MTT was added to each well at a final concentration of 0.40 mg ml^−1. The plates were then incubated for 2 h at 37 °C, 7% CO2. Medium was carefully removed via suction, and purple formazan crystals were resuspended in 100 µl DMSO. Absorbance was read at 570 nm using a Clariostar plate reader with MARS (V4.20). The data were then analysed with GraphPad Prism software. IC50 values were calculated using non-linear fitted curve with variable slope settings, with values adjusted for background (plotted absorbance (ABS)sample = (ABSsample – ABSbackground) / (ABSvehicle – ABSbackground)). Technical triplicates for each condition were used, along with biological duplicates.

HepG2 = assay: Cytotoxicity assay (MTT); format: cell-based, human; conditions: for IC50: Homo sapiens, HepG2, 24 h, MTT, 24 h
Procedure: as §2

E. coli W3110 = assay: MIC by broth microdilution; format: cell-based, Escherichia coli; conditions: Escherichia coli, W3110, WT, broth microdilution; read-out: MIC E. coli W3110
Method in brief: as §1

[1] = 0.023 uM, experiment n = 1, technical triplicates
[2] = 0.023 uM, experiment n = 2, technical triplicates
[3] = 0.068 uM, experiment n = 1, technical triplicates
[4] = 0.068 uM, experiment n = 2, technical triplicates
[5] = 0.21 uM, experiment n = 1, technical triplicates
[6] = 0.21 uM, experiment n = 2, technical triplicates
[7] = 0.62 uM, experiment n = 1, technical triplicates
[8] = 0.62 uM, experiment n = 2, technical triplicates
[9] = 1.85 uM, experiment n = 1, technical triplicates
[10] = 1.85 uM, experiment n = 2, technical triplicates
[11] = 5.6 uM, experiment n = 1, technical triplicates
[12] = 5.6 uM, experiment n = 2, technical triplicates
[13] = 16.7 uM, experiment n = 1, technical triplicates
[14] = 16.7 uM, experiment n = 2, technical triplicates
[15] = HepG2, 0.023 uM, experiment n = 1, technical triplicates
[16] = HepG2, 0.023 uM, experiment n = 2, technical triplicates
[17] = HepG2, 0.068 uM, experiment n = 1, technical triplicates
[18] = HepG2, 0.068 uM, experiment n = 2, technical triplicates
[19] = HepG2, 0.21 uM, experiment n = 1, technical triplicates
[20] = HepG2, 0.21 uM, experiment n = 2, technical triplicates
[21] = HepG2, 0.62 uM, experiment n = 1, technical triplicates
[22] = HepG2, 0.62 uM, experiment n = 2, technical triplicates
[23] = HepG2, 1.85 uM, experiment n = 1, technical triplicates
[24] = HepG2, 1.85 uM, experiment n = 2, technical triplicates
[25] = HepG2, 5.6 uM, experiment n = 1, technical triplicates
[26] = HepG2, 5.6 uM, experiment n = 2, technical triplicates

## O=S(=O)(NCCNCc1ccc(-c2ccc(Cl)cc2)cc1)c1cccc2cnccc12 [Compound 61]
K. pneumoniae ATCC 29665
  MIC: > 50 µM
HEK293T; 0.023 uM, n = 1
  MTT data (raw reading): 0.895 and 1.117 and 0.888
HEK293T; 0.023 uM, n = 2
  MTT data (raw reading): 0.606 and 0.823 and 0.767
HEK293T; 0.068 uM, n = 1
  MTT data (raw reading): 1.228 and 1.100 and 1.289
HEK293T; 0.068 uM, n = 2
  MTT data (raw reading): 0.594 and 0.790 and 0.797
HEK293T; 0.21 uM, n = 1
  MTT data (raw reading): 1.193 and 1.192 and 1.600
HEK293T; 0.21 uM, n = 2
  MTT data (raw reading): 0.478 and 0.738 and 0.728
HEK293T; 0.62 uM, n = 1
  MTT data (raw reading): 0.992 and 0.937 and 0.903
HEK293T; 0.62 uM, n = 2
  MTT data (raw reading): 0.540 and 0.686 and 0.703
HEK293T; 1.85 uM, n = 1
  MTT data (raw reading): 0.640 and 0.552 and 0.507
HEK293T; 1.85 uM, n = 2
  MTT data (raw reading): 0.345 and 0.480 and 0.465
HEK293T; 5.6 uM, n = 1
  MTT data (raw reading): 0.114 and 0.126 and 0.094
HEK293T; 5.6 uM, n = 2
  MTT data (raw reading): 0.048 and 0.047 and 0.040
HEK293T; 16.7 uM, n = 1
  MTT data (raw reading): 0.021 and 0.012 and 0.016
HEK293T
  IC50: 1 µM
HepG2; HepG2, 0.023 uM, n = 1
  MTT data (raw reading): 0.473 and 0.481 and 0.514
HepG2; HepG2, 0.023 uM, n = 2
  MTT data (raw reading): 0.517 and 0.561 and 0.567
HepG2; HepG2, 0.068 uM, n = 1
  MTT data (raw reading): 0.534 and 0.501 and 0.482
HepG2; HepG2, 0.068 uM, n = 2
  MTT data (raw reading): 0.479 and 0.534 and 0.570
HepG2; HepG2, 0.21 uM, n = 1
  MTT data (raw reading): 0.462 and 0.484 and 0.480
HepG2; HepG2, 0.21 uM, n = 2
  MTT data (raw reading): 0.576 and 0.558 and 0.573
HepG2; HepG2, 0.62 uM, n = 1
  MTT data (raw reading): 0.454 and 0.449
HepG2; HepG2, 0.62 uM, n = 2
  MTT data (raw reading): 0.464 and 0.502 and 0.467
HepG2; HepG2, 1.85 uM, n = 1
  MTT data (raw reading): 0.401 and 0.414 and 0.404
HepG2; HepG2, 1.85 uM, n = 2
  MTT data (raw reading): 0.454 and 0.456 and 0.471
HepG2; HepG2, 5.6 uM, n = 1
  MTT data (raw reading): 0.017 and 0.021 and 0.022
HepG2; HepG2, 5.6 uM, n = 2
  MTT data (raw reading): 0.042 and 0.022 and 0.021
HepG2; HepG2, 16.7 uM, n = 1
  MTT data (raw reading): 0.009 and 0.013
HepG2
  IC50: 2.8 µM
E. coli W3110
  MIC: 6.25 µM (≈ 2.82 µg/mL)

## N#Cc1ccc(-c2ccc(CNCCNS(=O)(=O)c3cccc4cnccc34)cc2)cc1 [Compound 63]
K. pneumoniae ATCC 29665
  MIC: 12.5 µM (≈ 5.53 µg/mL)
HEK293T; [1]
  MTT data (raw readout): 0.901 and 1.153 and 1.291
HEK293T; [2]
  MTT data (raw readout): 0.788 and 0.714 and 0.753
HEK293T; [3]
  MTT data (raw readout): 1.230 and 1.606
HEK293T; [4]
  MTT data (raw readout): 0.880 and 0.788
HEK293T; [5]
  MTT data (raw readout): 1.126 and 1.263 and 1.301
HEK293T; [6]
  MTT data (raw readout): 0.786 and 0.824 and 0.781
HEK293T; [7]
  MTT data (raw readout): 1.516 and 1.537 and 1.418
HEK293T; [8]
  MTT data (raw readout): 0.850 and 0.846 and 0.825
HEK293T; [9]
  MTT data (raw readout): 1.143 and 1.250 and 1.118
HEK293T; [10]
  MTT data (raw readout): 0.775 and 0.761 and 0.773
HEK293T; [11]
  MTT data (raw readout): 1.050 and 1.130 and 1.181
HEK293T; [12]
  MTT data (raw readout): 0.666 and 0.667 and 0.723
HEK293T; [13]
  MTT data (raw readout): 0.577 and 0.585 and 0.499
HEK293T; [14]
  MTT data (raw readout): 0.403 and 0.407 and 0.398
HEK293T; 50 uM, experiment n = 1, technical triplicates
  MTT data (raw readout): 0.057 and 0.055 and 0.049
HEK293T
  IC50: 14.7 µM
HepG2; [15]
  MTT data (raw readout): 0.543 and 0.530 and 0.509
HepG2; [16]
  MTT data (raw readout): 0.611 and 0.614 and 0.593
HepG2; [17]
  MTT data (raw readout): 0.510 and 0.515 and 0.533
HepG2; [18]
  MTT data (raw readout): 0.570 and 0.587 and 0.633
HepG2; [19]
  MTT data (raw readout): 0.498 and 0.524 and 0.534
HepG2; [20]
  MTT data (raw readout): 0.605 and 0.658 and 0.657
HepG2; [21]
  MTT data (raw readout): 0.497 and 0.566 and 0.560
HepG2; [22]
  MTT data (raw readout): 0.617 and 0.653 and 0.661
HepG2; [23]
  MTT data (raw readout): 0.544 and 0.508 and 0.538
HepG2; [24]
  MTT data (raw readout): 0.697 and 0.634 and 0.669
HepG2; [25]
  MTT data (raw readout): 0.597 and 0.586 and 0.658
HepG2; [26]
  MTT data (raw readout): 0.663 and 0.721 and 0.746
HepG2; HepG2, 16.7 uM, experiment n = 1, technical triplicates
  MTT data (raw readout): 0.547 and 0.517 and 0.544
HepG2; HepG2, 16.7 uM, experiment n = 2, technical triplicates
  MTT data (raw readout): 0.629 and 0.671 and 0.616
HepG2
  IC50: 38 µM
E. coli W3110
  MIC: 6.25 µM (≈ 2.77 µg/mL)

## O=S(=O)(NCCNCc1ccc(-c2ccc(F)nc2)c(F)c1)c1cccc2cnccc12 [Compound 89]
K. pneumoniae ATCC 29665
  MIC: 12.5 µM (≈ 5.68 µg/mL)
HEK293T; [1]
  MTT data (raw readout): 1.460 and 1.327 and 1.155
HEK293T; [2]
  MTT data (raw readout): 1.578 and 1.464 and 1.567
HEK293T; [3]
  MTT data (raw readout): 1.383 and 1.285 and 1.405
HEK293T; [4]
  MTT data (raw readout): 1.657 and 1.634 and 1.543
HEK293T; [5]
  MTT data (raw readout): 1.422 and 1.388 and 1.379
HEK293T; [6]
  MTT data (raw readout): 1.511 and 1.515 and 1.445
HEK293T; [7]
  MTT data (raw readout): 1.302 and 1.254 and 1.287
HEK293T; [8]
  MTT data (raw readout): 1.280 and 1.339 and 1.417
HEK293T; [9]
  MTT data (raw readout): 1.134 and 1.184 and 1.193
HEK293T; [10]
  MTT data (raw readout): 1.303 and 1.294 and 1.289
HEK293T; [11]
  MTT data (raw readout): 0.891 and 0.915 and 0.826
HEK293T; [12]
  MTT data (raw readout): 0.987 and 0.926 and 0.889
HEK293T; [13]
  MTT data (raw readout): 0.240 and 0.299 and 0.212
HEK293T; [14]
  MTT data (raw readout): 0.285 and 0.310 and 0.251
HEK293T
  IC50: 8.9 µM
HepG2; [15]
  MTT data (raw readout): 1.211 and 1.032 and 1.095
HepG2; [16]
  MTT data (raw readout): 0.940 and 0.892 and 0.823
HepG2; [17]
  MTT data (raw readout): 1.059 and 1.047 and 0.930
HepG2; [18]
  MTT data (raw readout): 0.912 and 0.982 and 0.829
HepG2; [19]
  MTT data (raw readout): 1.201 and 1.007 and 1.154
HepG2; [20]
  MTT data (raw readout): 0.862 and 0.878 and 0.892
HepG2; [21]
  MTT data (raw readout): 0.908 and 1.012 and 1.031
HepG2; [22]
  MTT data (raw readout): 0.861 and 0.862 and 0.848
HepG2; [23]
  MTT data (raw readout): 0.964 and 0.831 and 0.983
HepG2; [24]
  MTT data (raw readout): 0.918 and 0.866 and 0.845
HepG2; [25]
  MTT data (raw readout): 0.840 and 0.880 and 0.890
HepG2; [26]
  MTT data (raw readout): 0.798 and 0.838 and 0.803
HepG2
  IC50: 6.8 µM
E. coli W3110
  MIC: 6.25 µM (≈ 2.84 µg/mL)
